The values below come from patent publication US10882837B2, “Amide compounds and use thereof” (ALPHALA CO., LTD., priority 2017, dated 2021).

One assay addresses T1, glucagon receptor (GCGR) (Homo sapiens, UniProt P47871).
T1 construct: expressed in transfected cells; host or cells: CHO-K1
Put plainly: Glucagon cAMP inhibition assay (Cisbio cAMP Dynamic 2 HTRF). To be noted: GCGR overexpressed CHO-K1 cells or human primary hepatocytes (not specified); glucagon at EC50. The assay is classed as cell-based. Here is the method: Glucagon eAMP Inhibition Assay
Downstream secondary messenger eAMP induced by glucagon was detected by Cisbio cAMP Dynamic 2 kit. Testing compounds were each prepared as a dimethyl sulfoxide (DMSO) solution at the concentration of 10 mM. To evaluate the potency of compounds in inhibiting the cAMP production, glucagon receptor (GCGR) overexpressed CHO-K1 cells or human primary hepatocytes were treated with compounds with a serial dilution. The cells were re-suspended in Hank's Balanced Salt solution (HBSS) contained 0.1% (w/v) bovine serum albumin and 800 nM 3-isobutyl-1-methylxanthine (IBMX) and seeded into low volume, 384 wells white plate. The diluted compounds were then added into the plate for 30 minutes pre-incubation where the final DMSO concentration was 1%. The cells were stimulated with glucagon at the concentration equaled to EC50 (an indicium of the concentration of a drag that gives half-maximal response) for 30 minutes at room temperature. After incubation, lysis buffer contain cAMP antibody and fluorescence acceptor were added into each well for additional 60 minutes incubation. Results were recorded by Molecular Devices SpectraMax Paradigm with the HTRF Detection Cartridges and the IC50 value of each compound in inhibiting the cAMP production was calculated with non-linear regression based on the amount of cAMP production.

In a further assay the target is GCGR (Homo sapiens, UniProt P47871). Put plainly: I125-glucagon binding assay (competition, GCGR membrane fractions). Further details: expressed in transfected cells; host or cells: CHO-K1. Conditions: for IC50: competition with I125-glucagon 0.0625 nM, membrane fractions from GCGR overexpressed CHO-K1 cells. Here is the method: I^125-Glucagon Binding Assay
GCGR, sequence (P47871 26-477, species assumed): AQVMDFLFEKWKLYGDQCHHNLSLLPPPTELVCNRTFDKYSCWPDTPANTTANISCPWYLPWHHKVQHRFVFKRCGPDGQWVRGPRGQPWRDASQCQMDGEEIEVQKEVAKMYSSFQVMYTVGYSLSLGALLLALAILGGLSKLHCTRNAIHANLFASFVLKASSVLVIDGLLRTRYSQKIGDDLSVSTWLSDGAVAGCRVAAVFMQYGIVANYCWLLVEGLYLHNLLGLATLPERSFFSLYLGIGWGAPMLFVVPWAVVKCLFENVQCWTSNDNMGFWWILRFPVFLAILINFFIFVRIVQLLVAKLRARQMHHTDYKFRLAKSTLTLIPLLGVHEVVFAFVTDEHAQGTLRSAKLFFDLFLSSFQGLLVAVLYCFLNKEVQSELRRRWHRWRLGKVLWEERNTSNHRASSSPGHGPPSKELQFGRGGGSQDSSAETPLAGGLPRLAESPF
The binding affinity of each compound was evaluated by a competition assay with I^125-glucagon. GCGR membrane fractions were obtained from GCGR overexpressed CHO-K1 cells as a stock of 1 mg/ml concentration. To evaluate the IC50 of compounds binding to GCGR, GCGR membrane fractions were treated with compounds with a serial dilution. The membrane fractions were diluted to 7.5 microgram per well in 70 microliter assay buffer contained 50 mM Tris pH 7.4 and 0.5% (w/v) bovine serum albumin and added into 96 wells plate. The membrane fractions were then mixed with 10 microliter diluted compounds. After 5 minutes pre-incubation, 20 microliter I^125 labeled glucagon (Perkin Elmer) was added into each well at the final concentration of 0.0625 nM. The assay mixtures were incubated at 25° C. for 30 minutes and then transferred onto the Millipore Multiscreen GF/B Plate coated with 0.5% (w/v) Polyethyleneimine. The filter plate was washed with wash buffer contained 50 mM Tris pH 7.4 for 2 times, 300 microliter each time. The residual isotope was detected by Hidex CHAMELEON V micro-beta counter and the IC50 value of each compound binding to GCGR was calculated with non-linear regression.

T1 sequence (P47871 26-477, species assumed): as above

Turning to `CCOC(=O)CCNC(=O)c1ccc(NC(c2ccc(-c3nnc(-c4ccc(OC)cc4)o3)cc2)C(C)C)cc1` (stereo not drawn) [Compound 1-25, ethyl 3-(4-((l-(4-(5-(4-methoxyphenyl)-1,3,4-oxadiazol-2-yl)phenyl)-2-methylpropyl)amino)benzamido)propanoate], the half-maximal inhibitory concentration (IC50) (in general, the concentration that inhibits the measured activity by half) against glucagon receptor (GCGR) was 284 nM; on GCGR it was over 30000 nM.

For the compound `COc1ccc(-c2nnc(-c3ccc(C(Nc4ccc(C(=O)NCCC(=O)O)cc4)C(C)C)cc3)o2)cc1` (centres unmarked) [Compound 1-26, 3-(4-((1-(4-(5-(4-methoxyphenyl)-1,3,4-oxadiazol-2-yl)phenyl)-2-methylpropyl)amino)benzamido)propanoic acid], the concentration for half-maximal inhibition (IC50) was 4380 nM on glucagon receptor (GCGR) and 198 nM on GCGR.

Take `CCOC(=O)CCNC(=O)c1ccc(NC(CC(C)C)c2ccc(-c3nnc(-c4ccc(F)cc4)o3)cc2)cc1` (centres unmarked) [Compound 1-27, ethyl 3-(4-((1-(4-(5-(4-fluorophenyl)-1,3,4-oxadiazol-2-yl)phenyl)-3-methylbutyl)amino)benzamido)propanoate]: the figures for the 50% inhibitory concentration (IC50) against glucagon receptor (GCGR) and on GCGR were 118 nM and over 30000 nM, respectively.

As to `CC(C)CC(Nc1ccc(C(=O)NCCC(=O)O)cc1)c1ccc(-c2nnc(-c3ccc(F)cc3)o2)cc1` (centres unmarked) [Compound 1-28, 3-(4-((1-(4-(5-(4-fluorophenyl)-1,3,4-oxadiazol-2-yl)phenyl)-3-methylbutyl)amino)benzamido)propanoic acid], the 50% inhibitory concentration (IC50) against glucagon receptor (GCGR) was 4760 nM; on GCGR, 563 nM.

On to `CCOC(=O)CCNC(=O)c1ccc(NC(c2ccc(-c3nnc(-c4ccc(F)cc4)o3)cc2)C(C)CC)cc1` (centres unmarked) [Compound 1-29, ethyl 3-(4-((1-(4-(5-(4-fluorophenyl)-1,3,4-oxadiazol-2-yl)phenyl)-2-methylbutyl)amino)benzamido)propanoate], for which the half-maximal inhibitory concentration (IC50) against glucagon receptor (GCGR) was found to be 114 nM; on GCGR, 4720 nM.

For `CCC(C)C(Nc1ccc(C(=O)NCCC(=O)O)cc1)c1ccc(-c2nnc(-c3ccc(F)cc3)o2)cc1` (centres unmarked) [Compound 1-30, 3-(4-((1-(4-(5-(4-fluorophenyl)-1,3,4-oxadiazol-2-yl)phenyl)-2-methylbutyl)amino)benzamido)propanoic acid], the IC50 against glucagon receptor (GCGR) was found to be 3410 nM; on GCGR it was 347 nM.

For the compound `CCOC(=O)CCNC(=O)c1ccc(NC(c2ccc(-c3nnc(C(F)(F)F)o3)cc2)C(C)CC)cc1` (centres unmarked) [Compound 1-31, ethyl 3-(4-((2-methyl-1-(4-(5-(trifluoromethyl)-1,3,4-oxadiazol-2-yl)phenyl)butyl)amino)benzamido)propanoate], the concentration for half-maximal inhibition (IC50) was 88 nM against glucagon receptor (GCGR) and over 30000 nM at GCGR.

Regarding `CCC(C)C(Nc1ccc(C(=O)NCCC(=O)O)cc1)c1ccc(-c2nnc(C(F)(F)F)o2)cc1` (centres unmarked) [Compound 1-32], the half-maximal inhibitory concentration (IC50) on glucagon receptor (GCGR) turned out to be 3480 nM; at GCGR, 885 nM.

On to `CCCCC(Nc1ccc(C(=O)NCCC(=O)OCC)cc1)c1ccc(-c2nnc(C(F)(F)F)o2)cc1` (centres unmarked) [Compound 1-33, ethyl 3-(4-((1-(4-(5-(trifluoromethyl)-1,3,4-oxadiazol-2-yl)phenyl)pentyl)amino)benzamido)propanoate], for which the values for the half-maximal inhibitory concentration (IC50) against glucagon receptor (GCGR) and on GCGR were 142 nM and over 30000 nM, respectively.

With `CCOC(=O)CCNC(=O)c1ccc(N[C@H](c2ccc(-c3nnc(C(F)(F)F)o3)cc2)C(C)CC)cc1` (stereo partly drawn) [Compound 1-34, ethyl 3-(4-(((1S)-2-methyl-1-(4-(5-(trifluoromethyl)-1,3,4-oxadiazol-2-yl)phenyl)butyl)amino)benzamido)propanoate], the IC50 at glucagon receptor (GCGR) worked out at 42 nM; at GCGR it was 16100 nM.

As for `CCOC(=O)CCNC(=O)c1ccc(N[C@@H](c2ccc(-c3nnc(C(F)(F)F)o3)cc2)C(C)CC)cc1` (stereo partly drawn) [Compound 1-35, ethyl 3-(4-(((1R)-2-methyl-1-(4-(5-(trifluoromethyl)-1,3,4-oxadiazol-2-yl)phenyl)butyl)amino)benzamido)propanoate], the IC50 against glucagon receptor (GCGR) is 384 nM; on GCGR, over 30000 nM.

Take `CCC(C)[C@H](Nc1ccc(C(=O)NCCC(=O)O)cc1)c1ccc(-c2nnc(C(F)(F)F)o2)cc1` (stereo partly drawn) [Compound 1-36, 3-(4-(((1S)-2-methyl-1-(4-(5-(trifluoromethyl)-1,3,4-oxadiazol-2-yl)phenyl)butyl)amino)benzamido)propanoic acid]: the half-inhibitory concentration (IC50) on glucagon receptor (GCGR) was 2040 nM; on GCGR, 359 nM.

`CCC(C)[C@@H](Nc1ccc(C(=O)NCCC(=O)O)cc1)c1ccc(-c2nnc(C(F)(F)F)o2)cc1` (stereo partly drawn) [Compound 1-37, 3-(4-(((1R)-2-methyl-1-(4-(S-(trifluoromethyl)-1,3,4-oxadiazol-2-yl)phenyl)butyl)amino)benzamido)propanoic acid]: the IC50 against glucagon receptor (GCGR) was 3260 nM; at GCGR it was 1640 nM.

For `CCCCC(Nc1ccc(C(=O)NCCC(=O)OC)cc1)c1ccc(-c2nnc(-c3ccccn3)o2)cc1` (centres unmarked) [Compound 1-38, methyl 3-(4-((1-(4-(5-(pyridin-2-yl)-1,3,4-oxadiazol-2-yl)phenyl)pentyl)amino)benzamido)propanoate], the IC50 worked out at 80 nM against glucagon receptor (GCGR) and 1580 nM at GCGR.

Consider `CCOC(=O)CCNC(=O)c1ccc(N[C@H](c2ccc(-c3nnc(-c4ccccc4)o3)cc2)C(C)C)cc1` [Compound 1-39, (S)-ethyl 3-(4-(2-methyl-1-(4-(5-phenyl-1,3,4-oxadiazol-2-yl)phenyl)propylamino)benzamido)propanoate], for which the values for the IC50 at glucagon receptor (GCGR) and at GCGR were 40.3 nM and 2850 nM, respectively.

For `CCOC(=O)CCNC(=O)c1ccc(N[C@@H](c2ccc(-c3nnc(-c4ccccc4)o3)cc2)C(C)C)cc1` [Compound 1-40, (R)-ethyl 3-(4-(2-methyl-1-(4-(5-phenyl-1,3,4-oxadiazol-2-yl)phenyl)propylamino)benzamido)propanoate], the 50% inhibitory concentration (IC50) against glucagon receptor (GCGR) is 162 nM; at GCGR, over 30000 nM.

On to `CC(C)[C@H](Nc1ccc(C(=O)NCCC(=O)O)cc1)c1ccc(-c2nnc(-c3ccccc3)o2)cc1` [Compound 1-41, (S)-3-(4-(2-methyl-1-(4-(5-phenyl-1,3,4-oxadiazol-2-yl)phenyl)propylamino)benzamido)propanoic acid], for which the figures for the 50% inhibitory concentration (IC50) against glucagon receptor (GCGR) and at GCGR were 2710 nM and 107 nM, respectively.

In the case of `CC(C)[C@@H](Nc1ccc(C(=O)NCCC(=O)O)cc1)c1ccc(-c2nnc(-c3ccccc3)o2)cc1` [Compound 1-42, (R)-3-(4-(2-methyl-1-(4-(5-phenyl-1,3,4-oxadiazol-2-yl)phenyl)propylamino)benzamido)propanoic acid], the 50% inhibitory concentration (IC50) against glucagon receptor (GCGR) is 2930 nM; on GCGR it was 2920 nM.

Consider `CCCC[C@H](Nc1ccc(C(=O)NCCC(=O)OCC)cc1)c1ccc(-c2nnc(-c3ccccn3)o2)cc1` [Compound 1-43, ethyl (S)-3-(4-((1-(4-(5-(pyridin-2-yl)-1,3,4-oxadiazol-2-yl)phenyl)pentyl)amino)benzamido)propanoate], for which the IC50 turned out to be 46.4 nM against glucagon receptor (GCGR) and 1480 nM at GCGR.

On to `CCCC[C@@H](Nc1ccc(C(=O)NCCC(=O)OCC)cc1)c1ccc(-c2nnc(-c3ccccn3)o2)cc1` [Compound 1-44, ethyl (R)-3-(4-((1-(4-(5-(pyridin-2-yl)-1,1,3,4-oxadiazol-2-yl)phenyl)pentyl)amino)benzamido propanoate], for which the IC50 on glucagon receptor (GCGR) was 830 nM; at GCGR, over 30000 nM.

Regarding `CCCC[C@H](Nc1ccc(C(=O)NCCC(=O)O)cc1)c1ccc(-c2nnc(-c3ccccn3)o2)cc1` [Compound 1-45, (S)-3-(4-((1-(4-(5-(pyridin-2-yl)-1,3,4-oxadiazol-2yl)phenyl)pentyl)amino)benzamido)propanoic acid], the IC50 against glucagon receptor (GCGR) is 2540 nM; at GCGR, 339 nM.

As for `CCCC[C@@H](Nc1ccc(C(=O)NCCC(=O)O)cc1)c1ccc(-c2nnc(-c3ccccn3)o2)cc1` [Compound 1-46], the figures for the 50% inhibitory concentration (IC50) on glucagon receptor (GCGR) and on GCGR were over 30000 nM and 702 nM, respectively.

In the case of `CCOC(=O)CCNC(=O)c1ccc(N[C@H](c2ccc(-c3nnc(-c4ccccc4)o3)cc2)C(C)CC)cc1` (stereo partly drawn) [Compound 1-47, ethyl 3-(4-(((1S)-2-methyl-1-(4-(5-phenyl-1,3,4-oxadiazol-2-yl)phenyl)butyl)amino)benzamido)propanoate], the half-maximal inhibitory concentration (IC50) was determined as 37 nM against glucagon receptor (GCGR) and 226 nM on GCGR. Further, the inhibition (in general, the relative decrease from the control value, in per cent) at 30 µM at GCGR (compound at 30 μM, read-out: percentage of inhibition (number in parenthesis in IC50 binding column)) came out at 28%.
